Our source for the IC50 values is ChEMBL document CHEMBL4428067, “Drug Discovery against Psoriasis: Identification of a New Potent FMS-like Tyrosine Kinase 3 (FLT3) Inhibitor, 1-(4-((1H-Pyrazolo[3,4-d]pyrimidin-4-yl)oxy)-3-fluorophenyl)-3-(5-(tert-butyl)isoxazol-3-yl)urea, That Showed Potent Activity in a Psoriatic Animal Model” (J Med Chem, 2016).

In the assay the target is T1, Receptor-type tyrosine-protein kinase FLT3 (Homo sapiens, UniProt P36888).
T1 sequence (P36888 whole entry): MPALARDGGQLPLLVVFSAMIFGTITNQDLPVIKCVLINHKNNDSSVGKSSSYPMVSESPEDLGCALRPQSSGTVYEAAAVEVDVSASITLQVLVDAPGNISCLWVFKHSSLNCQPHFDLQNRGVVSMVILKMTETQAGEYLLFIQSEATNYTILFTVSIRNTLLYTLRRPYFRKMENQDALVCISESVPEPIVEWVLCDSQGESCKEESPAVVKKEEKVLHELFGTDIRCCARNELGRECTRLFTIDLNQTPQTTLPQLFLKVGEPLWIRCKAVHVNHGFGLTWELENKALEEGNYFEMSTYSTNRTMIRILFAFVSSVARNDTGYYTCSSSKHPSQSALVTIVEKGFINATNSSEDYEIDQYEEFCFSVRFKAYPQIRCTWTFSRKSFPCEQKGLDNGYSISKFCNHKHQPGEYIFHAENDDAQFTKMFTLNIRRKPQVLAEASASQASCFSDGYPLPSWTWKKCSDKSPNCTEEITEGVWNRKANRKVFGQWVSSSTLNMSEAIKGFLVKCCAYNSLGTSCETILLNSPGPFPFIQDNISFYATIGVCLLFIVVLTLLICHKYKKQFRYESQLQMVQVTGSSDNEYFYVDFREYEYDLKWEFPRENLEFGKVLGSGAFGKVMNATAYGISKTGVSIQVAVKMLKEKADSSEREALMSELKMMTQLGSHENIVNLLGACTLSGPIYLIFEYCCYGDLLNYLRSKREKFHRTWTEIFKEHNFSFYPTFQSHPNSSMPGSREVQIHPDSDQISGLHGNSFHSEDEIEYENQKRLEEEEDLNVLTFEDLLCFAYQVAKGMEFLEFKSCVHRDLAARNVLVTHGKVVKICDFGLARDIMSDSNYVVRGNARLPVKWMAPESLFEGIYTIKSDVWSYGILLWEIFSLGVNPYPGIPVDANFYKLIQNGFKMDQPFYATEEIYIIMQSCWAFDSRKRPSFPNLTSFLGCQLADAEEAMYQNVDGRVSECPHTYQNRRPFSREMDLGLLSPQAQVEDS
In words: Inhibition of recombinant human N-terminal GST-tagged FLT3 (564 to end residues) expressed by baculovirus in Sf21 insect cells measured after 10 mins in presence of [gamma-33P]ATP by scintillation counter method.
For the molecule `Cn1nc(C(C)(C)C)cc1NC(=O)Nc1ccc(Oc2ncnc3[nH]ncc23)c(F)c1`, the IC50 (in general, the concentration that inhibits the measured activity by half) was 66 nM.
Next, `CC(C)(C)c1cc(NC(=O)Nc2ccc(Oc3ncnc4[nH]ncc34)c(F)c2)n(-c2ccccc2)n1`: 56 nM; `Cn1ncc2c(Oc3ccc(NC(=O)Nc4cc(C(C)(C)C)on4)cc3)ncnc21`: 27 nM.
In the case of `CC(C)c1cc(NC(=O)Nc2ccc(Oc3ncnc4[nH]ncc34)cc2)n(C)n1` it was 82 nM; in that of `CC(C)(C)c1cc(NC(=O)Nc2ccc(Oc3ncnc4[nH]ncc34)cc2)no1`, 11 nM; in that of `Cc1cc(NC(=O)Nc2cc(C(C)(C)C)on2)ccc1Oc1ncnc2[nH]ncc12`, 6 nM.
As for `CC(C)(C)c1cc(NC(=O)Nc2ccc(Oc3ncnc4[nH]ncc34)cc2)on1`, the IC50 was 8 nM.
For the molecule `CN(C)CCCn1ncc2c(Oc3ccc(NC(=O)Nc4cc(C(C)(C)C)on4)cc3)ncnc21`, the concentration for half-maximal inhibition (IC50) came out at 80 nM.
In the case of `CC(C)(C)c1cc(NC(=O)Nc2ccc(Oc3ncnc4[nH]ncc34)cc2)n(C(=O)O)n1` it was 10 nM; in that of `CC(C)(C)c1cc(NC(=O)Nc2ccc(Oc3ncnc4c3cnn4CCN3CCOCC3)cc2)no1`, 449 nM; in that of `CC(C)(C)c1cc(NC(=O)Nc2ccc(Oc3ncnc4[nH]ncc34)c(Cl)c2)no1`, 2 nM.
With `CC(C)(C)c1cc(NC(=O)Nc2ccc(Oc3ncnc4[nH]ncc34)cc2F)no1`, the IC50 came out at 6 nM.
In the case of `CC(C)(C)c1cc(NC(=O)Nc2ccc(Oc3ncnc4[nH]ncc34)cc2)n(-c2ccccc2)n1` it was 50 nM; in that of `Cc1cc(Oc2ncnc3[nH]ncc23)ccc1NC(=O)Nc1cc(C(C)(C)C)on1`, 657 nM.
In the case of `Cn1nc(C(C)(C)C)cc1NC(=O)Nc1ccc(Oc2ncnc3[nH]ncc23)cc1` it was 62 nM.
In the case of `CC(C)n1ncc2c(Oc3ccc(NC(=O)Nc4cc(C(C)(C)C)on4)cc3)ncnc21` it was 217 nM; in that of `CC(C)(C)c1cc(NC(=O)Nc2ccc(Oc3ncnc4[nH]ncc34)cc2)n(C2CCCC2)n1`, 52 nM.
For `Cn1nc(C(F)(F)F)cc1NC(=O)Nc1ccc(Oc2ncnc3[nH]ncc23)c(F)c1`, the IC50 is 36 nM.
Next, `O=C(Nc1ccc(Oc2ncnc3[nH]ncc23)cc1)Nc1nc(-c2ccccc2)cs1`: 73 nM.
For `CC(C)(C)c1cc(NC(=O)Nc2ccc(Oc3ncnc4[nH]ncc34)c(F)c2)n(-c2ccc(F)cc2)n1`, the IC50 is 42 nM.
For `CC(C)(C)c1csc(NC(=O)Nc2ccc(Oc3ncnc4[nH]ncc34)cc2)n1`, the IC50 was 8 nM.
Next, `O=C(Nc1ccc(Oc2ncnc3[nH]ncc23)cc1)Nc1cc(C(F)(F)F)on1`: 28 nM.
In the case of `CC(C)(C)c1cc(NC(=O)Nc2ccc(Oc3ncnc4[nH]ncc34)c(F)c2)n(C2CCCC2)n1` it was 53 nM; in that of `O=C(Nc1ccc(Oc2ncnc3[nH]ncc23)cc1)Nc1nc2ccccc2s1`, 294 nM.
Next, `Cn1nc(C(F)(F)F)cc1NC(=O)Nc1ccc(Oc2ncnc3[nH]ncc23)cc1`: 38 nM.
